According to a melting point compilation (Tetko et al.; mined from patent text by program, amines drawn as free bases though some values may be those of a salt):

| SMILES | melting point [°C] |
| --- | --- |
| O=[N+]([O-])c1ccc(OCCOc2ccccc2)cc1 | 86 to 87 |
| COC(=O)c1ccc(OCCNC(=O)C2Cc3ccccc3N2S(=O)(=O)c2ccc(-c3ccc(F)cc3)cc2)cc1C(F)(F)F (centres undefined) | 62 to 70 |
| COC(=O)c1ccc(OC(=O)Cl)cc1 | 52 to 53 |
| Nc1ccccc1C(=O)NCCCn1ccnc1 | 107 to 110 |
| Cc1ccc(-c2nc(COc3ccc(CCCCn4ccnc4)cc3)cs2)s1 | 81 to 82 |
| O=C(O)CC(Sc1ccccc1)c1ccc(Cl)cc1 (centres undefined) | 99 to 102 |
| Cc1cc(Cc2cnc(N)nc2N)cc(C)c1N(C)C | 162 to 163 |
| Cc1cn2nc(SCc3ccccc3)nc2nc1Cl | 179 to 181 |
| Cc1nc(NC(=O)c2ccco2)sc1C(=O)c1sc(NC(=O)c2ccco2)nc1C | 198 to 199 |
| N=C(N)c1ccnc(-c2ccc(-c3ccc(-c4cc(C(=N)N)ccn4)s3)s2)c1 | > 300 |
| O=C(O)CC1(CCl)OCCO1 | 64 to 65 |
| CC(=O)NC(CC=Cc1ccccc1)(COC(C)=O)COC(C)=O | 88 to 90 |
| COc1cc(Br)c(C=O)cc1OCc1ccccc1 | 140 to 141 |
| CCCCCCOc1ccc(C=[N+]([O-])C(C)(C)C)cc1 | 69 |
| c1cc(-c2cncnc2)cc(-n2cnc3cc(-c4ccoc4)ccc32)c1 | 216 to 218 |
| COc1cc(-c2nc(-n3cccn3)c3c(C)c(C#N)sc3n2)cc(OC)c1OC | 209 to 214 |
| CCc1[nH]c2cc(C)c(Oc3ccc(OC(F)(F)F)cc3)cc2c(=O)c1C | 281 to 283 |
| O=C(/C=C/c1c(-c2ccc(F)cc2)nc2sccn12)c1ccc2ccccc2c1 | 216 to 218 |
| CSCCOc1cc(N)c(Cl)cc1C(=O)O | 138 to 140 |
| CSC1=CC2=CN(O)NN2C(SC)=N1 | 275 to 278 |
| COc1ccc2nccc(NC(=O)N3CCN(CCc4cnc5ccccc5n4)CC3)c2n1 | 138 to 140 |
| Oc1ccc(-c2cccc(F)c2F)cc1 | 132 to 134 |
| CCCCc1ccc(C(=O)NCCCCn2c(CCOC)nc3c(N)nc4ccccc4c32)nc1 | 54.9 to 55.2 |
| Cc1ccc(S(C)(=O)=O)cc1-c1n[nH]c2nc(Oc3ccc(F)cc3F)ncc12 | 133 to 135 |
| CC(NC(=O)C(N)Cc1ccccc1)C(N)=O (centres undefined) | 95 to 97 |
| CCCCc1nc2c(N)nc3cccnc3c2n1CCCCNC(=O)c1ccc(C(OCCN(C)C)c2ccccc2)cc1 (centres undefined) | 105 to 108 |

| SMILES | melting point [°C] |
| --- | --- |
| COc1ccc(-c2c(N)cnc3ccc(Cl)cc23)cc1OC | 187 to 190 |
| CN(C)c1nc2cc(Cl)c(Cl)cc2n1C1CC(CO)C(O)C1O (centres undefined) | 190 to 193 |
| COc1cc(Nc2cn(Cc3ccccc3)c(=O)c3ccccc23)cc(OC)c1OC | 162 to 164 |
| CCN(CC)C(=O)c1ccc(/C=C(\C)c2ccc3c(c2)C(C)(C)CCC3(C)C)cc1 | 111 to 112 |
| c1c(N2CCCC2)nc(NC23CC4CC(CC(C4)C2)C3)nc1N1CCNCC1 | 160 to 164 |
| CN1CCCC(O)(c2nccnc2Cl)C1 (centres undefined) | 111 to 112 |
| N#CCOc1ccc2cc(Br)ccc2c1Cl | 126 to 127 |
| COc1cc(N2CCN(C(=O)c3ccc(Nc4ccnc5cc(C(F)(F)F)ccc45)cc3)CC2)nc(OC)n1 | 260 to 262 |
| O=[N+]([O-])c1c(CBr)cccc1Oc1ccccc1Cl | 68 to 70 |
| CCCOc1ccccc1-c1nc2nc(NCC)ncc2c(=O)[nH]1 | 181 to 182 |
| NC(=O)CSC(=O)c1ccco1 | 126 to 128 |
| CN(C)C(Cl)=Nc1snc(C(C)(C)C)c1C#N | 94 to 100 |
| CNC(=O)c1ccc(Cl)cc1 | 158 to 161 |
| O=C1CNN=C(c2ccccn2)N1 | 138 to 139 |
| COc1ccc2ccc(I)cc2c1 | 116 |
| CC(C)c1cc(C(C)C)c(-c2csc(Br)n2)c(C(C)C)c1 | 236 |
| COC(=O)[C@H](C)NC(=O)CCCN(C(=O)c1ccc(Cl)cc1)c1c(C)cccc1C | 91 to 92 |
| COCC(=O)c1c[nH]c2ncc(-c3cc(OC)c(OC)c(OC)c3)nc12 | 229 to 230 |
| COC(=O)c1cccc(N)n1 | 87 |
| COCCOc1cc2c(cc1C#Cc1ccccc1)NC(=O)CC(c1cccc(C#N)c1)=N2 | 174 to 176 |
| Nc1cnn(CCO)c1NCCO | 140 to 142 |
| COc1ncnc(OC)c1N | 94 to 96 |
| CCC(=O)O[C@H]1C[C@@H](C(=O)OC)[C@]2(C)CC[C@H]3C(=O)O[C@H](c4ccoc4)C[C@]3(C)[C@H]2C1=O | 217 to 221 |
| Cc1nc(-c2ccccc2)cc(=O)[nH]1 | 238 to 240 |
| CCCCCC1CCC(c2ccc3c(c2F)C(F)(F)Oc2c-3ccc(OCCCC)c2F)CC1 (centres undefined) | 99 |

Results, then the molecule that gave them:

| melting point [°C] | SMILES |
| --- | --- |
| 296 to 298 | O=C(NCc1ccc(Cl)cc1)c1cnc2c(F)cc(-c3nccs3)cc2c1O |
| 203 | CC12CCC(=O)C=C1CCC1C2=CCC2(C)C1CCC2(OC=O)C(=O)CCl (centres undefined) |
| 219 to 221 | Cc1nc2c(c(=O)[nH]1)-c1ccc(Cl)cc1C(c1ccccc1)=[N+]([O-])C2 |
| 170 to 173 | CN(C)Cc1cc2ccc(C(=O)NN)cc2n1S(C)(=O)=O |
| 87 | CCC(=O)C1=C(O)CC(c2ccc3c(c2)CCCC3)CC1=O (centres undefined) |
| 138 to 140 | Cc1cc(Oc2ccc(Cl)nn2)c(C)cc1N |
| > 300 | O=C(O)Cc1c[nH]c2cc(C3CC3)nn2c1=O |
| 124 to 126 | CCOC(=O)c1[nH]cc(C)c(=O)c1C |
| 72 | CCCC(=O)C1=C(O)CC(c2cccnc2)CC1=O (centres undefined) |
| 215 | CCNC(=N)NC(=O)c1c(-c2ccccc2)noc1C |
| 96 to 98 | COc1cc(CCO)cc(OC)c1-c1ccc(C[C@H](NC(=O)c2c(Cl)cccc2Cl)C(=O)OC(C)(C)C)cc1 |
| 128 to 130 | N#Cc1c2c(n(Cc3ccccc3)c1N)CCCC2 |
| 120 to 124 | COC(=O)C(=O)NCC(C#Cc1ccccc1)c1ccc(OC)c(OC2CCCC2)c1 (racemic) |
| 104 to 105 | COC(=O)NNC(=S)Cc1ccc(C)cc1 |
| 141 to 142 | Nc1ccc([N+](=O)[O-])cc1CO |
| 203 to 205 | CCc1oc2ccccc2c1C(=O)NCc1ccc2cc(O)ccc2c1 |
| 86 to 90 | O=C1CCCC(CN2CCN(c3ccccn3)CC2)C1 (centres undefined) |
| 183 to 184 | CCOC(=O)c1ccc(C(=O)Nc2ccc3c(c2)CCC(C)(C)C(=O)N3C)cc1 |
| 225 to 228 | COc1cc2c(cc1OC)OCC(C(=O)O)=C2 |
| 205 | Cc1ccc(C(=O)C2=C(O)C(=O)N(c3ncc(S(=O)(=O)c4ccc([N+](=O)[O-])cc4)s3)C2c2ccc(C(=O)N(C)C)cc2)cc1 (centres undefined) |
| 134 to 136 | O=C(c1cc2cc(OCc3ccccc3)ccc2[nH]1)C1(c2ccc(Cl)cc2)CCCC1 |
| 123 to 125 | COc1cc(N)c(Cl)cc1C(=O)NCC1CCN(CCOCc2ccccc2)CC1 |
| 98 | CCCCNC(=O)C(C)Oc1ccc(COc2ccc(Cl)cc2)cc1 (centres undefined) |
| 64.7 | CCc1nn(C2CCCC2)c2c1CCN(c1ccc(OC)cc1)C2=O |
| 95 | C=CCOc1ccc(C(=O)c2ccc(OCC=C)cc2O)c(O)c1 |
| 168 to 170 | O=C1OCCN1CCN1CCN(C2Cc3ccc(Cl)cc3Sc3cc(F)ccc32)CC1 (centres undefined) |
| 132 to 133 | CCN(CCO)C(=O)C1=C(C(=O)Nc2cc(OC3CCCC3)c(Cl)cc2F)CCCC1 |

| melting point [°C] | SMILES |
| --- | --- |
| > 300 | O=c1[nH]c2cc(Cl)ccc2c(O)c1-c1ccccc1Cl |
| 115 to 118 | CCN(CCC(=O)O)C(=S)Nc1c(C)cccc1C |
| 70 to 72 | O=C(c1ccnc(Cl)c1)N1CC(c2ccc(F)cc2)C2(CCN(Cc3ccccc3)CC2)C1 (centres undefined) |
| 118 to 120 | CCn1c(=O)c(C(=O)NCCOC)c(O)c2ccc(C)nc21 |
| 174 to 176 | CN1C(=O)CCC2(C)c3ccc(Sc4ccccn4)cc3CCC12 (single isomer, unassigned; (+)) |
| 98 to 99 | CCC(=O)C(=Cc1ccccc1)c1cc(C)cs1 |
| 74 | FC(F)(F)c1ccc2nc(C3CCN(c4ncccc4Cl)CC3)[nH]c2c1 |
| 172 to 175 | CCOC(=O)C1CCCN2CCC3c4cc(Cl)ccc4N(N)C3C12 (centres undefined) |
| 166 to 168 | O=C(CBr)Nc1cc(F)ccc1C(=O)O |
| 231 to 232 | Cc1cc(F)ccc1-c1nc(NC2CCOCC2)nc2c1ccc(=O)n2-c1c(F)cccc1F |
| 150 | CCN(Cc1cc(Cl)ccc1OCC1CC1)c1ccc(C(=O)NS(=O)(=O)C(F)(F)F)nn1 |
| 124 to 125 | CCOc1ccc2nc(SC)c(C=O)cc2c1 |
| 150 | C=CCC(=O)Nc1n[nH]c2cc(Cl)ccc12 |
| 147 to 148 | CCn1c(=O)n(Cc2ccccc2)c(=O)c2cc(C(=O)OCc3ccccc3)sc21 |
| 181 to 185 | CC(=O)N(C(C)=O)c1cc2c(cc1Cl)C(=O)C1(CCOC1=O)O2 (centres undefined) |
| 115 | C#CCOC(=O)C1=C(C)NC(C)=C(C(=O)OC)C1c1ccccc1C(F)(F)F (centres undefined) |
| 99 to 100 | CC1(C)CCC(OC2=C(c3ccc(S(C)(=O)=O)cc3)C(C)(C)OC2=O)C1 (centres undefined) |
| 68 to 69 | CCOC(=O)CC(=O)NC(Cc1ccccc1)C(C)=O (centres undefined) |
| 145 to 147 | Cc1sc2c(c1C(=O)c1ccccc1)CCC2C(=O)O (centres undefined) |
| 180 to 182 | COc1ccc2c(c1)CN(C(=O)CN1CCOCC1)N=C2Cc1c(Cl)cncc1Cl |
| 110 to 112 | COc1ccc(C(=O)Cc2c(Cl)cncc2Cl)c2c1OC1(CCCC1)O2 |
| 149 to 151 | COC(=O)c1ccc2oc(-c3cc(C)ccc3OC(C)C)cc(=O)c2c1 |
| 57 to 59 | COC1=C(OC)C(=O)C2=C(CCC(CCOc3ccc(CO)cc3)CC2)C1=O |
| 151 to 153 | Cc1c(NC(=O)c2ccc(-c3ccccc3)cc2F)ccc2cc(CN3CCCCCC3)cnc12 |
| 200 to 201 | CCOC(=O)c1cnc2c(OCc3ccccc3)c(F)c(F)cc2c1O |
| 246 | CNS(=O)(=O)c1cc(C(=O)c2c(C)[nH]c3ccccc23)ccc1Cl |
